Assay results published in patent US20120046276A1, “Tuberculosis treatment using pleuromutilin derivatives” (priority 2002, published 2012).

Assays:
Type in all cases: cell-based
[1] = system: Mycobacterium tuberculosis strain 11; assay: Agar Dilution Test (MIC), strain 11 (Isoniacid S, Rifampicin S, Streptomycin S); conditions: TABLE A; strain 11; MIC determined after 3, 4 and 5 weeks
[2] = system: Mycobacterium tuberculosis strain 8; assay: Agar Dilution Test (MIC), strain 8 (Isoniacid S, Rifampicin R, Streptomycin S); conditions: TABLE A; strain 8; MIC determined after 3, 4 and 5 weeks
[3] = system: Mycobacterium tuberculosis strain 15 (labor strain 137 kV); assay: Agar Dilution Test (MIC), strain 15 = labor strain 137 kV (Isoniacid S, Rifampicin S, Streptomycin S); conditions: TABLE A; strain 15; MIC determined after 3, 4 and 5 weeks
[4] = system: Mycobacterium tuberculosis strain 6; assay: Agar Dilution Test (MIC), strain 6 (Isoniacid S, Rifampicin S, Streptomycin S); conditions: TABLE A; strain 6; MIC determined after 3, 4 and 5 weeks
[5] = system: Mycobacterium tuberculosis strain 10; assay: Agar Dilution Test (MIC), strain 10 (Isoniacid S, Rifampicin S, Streptomycin S); conditions: TABLE A; strain 10; MIC determined after 3, 4 and 5 weeks
[6] = system: Mycobacterium tuberculosis strain 3; assay: Agar Dilution Test (MIC), strain 3 (Isoniacid R, Rifampicin R, Streptomycin S); conditions: TABLE A; strain 3; MIC determined after 3, 4 and 5 weeks
[7] = system: Mycobacterium tuberculosis strain 1; assay: Agar Dilution Test (MIC), strain 1 (Isoniacid S, Rifampicin S, Streptomycin S); conditions: TABLE A; strain 1; MIC determined after 3, 4 and 5 weeks
[8] = system: Mycobacterium tuberculosis strain 12; assay: Agar Dilution Test (MIC), strain 12 (Isoniacid S, Rifampicin S, Streptomycin S); conditions: TABLE A; strain 12; MIC determined after 3, 4 and 5 weeks
[9] = system: Mycobacterium tuberculosis strain 7; assay: Agar Dilution Test (MIC), strain 7 (Isoniacid R, Rifampicin S, Streptomycin R); conditions: TABLE A; strain 7; MIC determined after 3, 4 and 5 weeks
[10] = system: Mycobacterium tuberculosis strain 14; assay: Agar Dilution Test (MIC), strain 14 (Isoniacid S, Rifampicin S, Streptomycin S); conditions: TABLE A; strain 14; MIC determined after 3, 4 and 5 weeks
[11] = system: Mycobacterium tuberculosis strain 9; assay: Agar Dilution Test (MIC), strain 9 (Isoniacid R, Rifampicin S, Streptomycin R); conditions: TABLE A, MIC determined after 3, 4 and 5 weeks
[12] = system: Mycobacterium tuberculosis strain 2; assay: Agar Dilution Test (MIC), strain 2 (Isoniacid S, Rifampicin S, Streptomycin S); conditions: TABLE A; strain 2; MIC determined after 3, 4 and 5 weeks
[13] = system: Mycobacterium tuberculosis strain 13; assay: Agar Dilution Test (MIC), strain 13 (Isoniacid S, Rifampicin S, Streptomycin S); conditions: TABLE A; strain 13; MIC determined after 3, 4 and 5 weeks
[14] = system: Mycobacterium tuberculosis strain 5; assay: Agar Dilution Test (MIC), strain 5 (Isoniacid R, Rifampicin R, Streptomycin S); conditions: TABLE A; strain 5; MIC determined after 3, 4 and 5 weeks
[15] = system: Mycobacterium tuberculosis strain 4; assay: Agar Dilution Test (MIC), strain 4 (Isoniacid R, Rifampicin R, Streptomycin R); conditions: TABLE A; strain 4; MIC determined after 3, 4 and 5 weeks

SMILES: NNC(=O)c1ccncc1 [Isoniacid]
- sensible (S) or resistant (R) [1]: S (sensible (S))
- sensible (S) or resistant (R) [2]: S (sensible (S))
- sensible (S) or resistant (R) [3]: S (sensible (S))
- sensible (S) or resistant (R) [4]: S (sensible (S))
- sensible (S) or resistant (R) [5]: S (sensible (S))
- sensible (S) or resistant (R) [6]: R (A strain is designated as resistant if its MIC in testing according to the General Test Procedure after 3 to 5 weeks is higher than 20 μg/ml)
- sensible (S) or resistant (R) [7]: S (sensible (S))
- sensible (S) or resistant (R) [8]: S (sensible (S))
- sensible (S) or resistant (R) [9]: R (A strain is designated as resistant if its MIC in testing according to the General Test Procedure after 3 to 5 weeks is higher than 20 μg/ml)
- sensible (S) or resistant (R) [10]: S (sensible (S))
- sensible (S) or resistant (R) [11]: R (A strain is designated as resistant if its MIC in testing according to the General Test Procedure after 3 to 5 weeks is higher than 20 μg/ml)
- sensible (S) or resistant (R) [12]: S (sensible (S))
- sensible (S) or resistant (R) [13]: S (sensible (S))
- sensible (S) or resistant (R) [14]: R (A strain is designated as resistant if its MIC in testing according to the General Test Procedure after 3 to 5 weeks is higher than 20 μg/ml)
- sensible (S) or resistant (R) [15]: R (A strain is designated as resistant if its MIC in testing according to the General Test Procedure after 3 to 5 weeks is higher than 20 μg/ml)

SMILES: CO[C@H]1/C=C/O[C@@]2(C)Oc3c(C)c(O)c4c(O)c(c(/C=N/N5CCN(C)CC5)c(O)c4c3C2=O)NC(=O)/C(C)=C\C=C\[C@H](C)[C@H](O)[C@@H](C)[C@@H](O)[C@@H](C)[C@H](OC(C)=O)[C@@H]1C [Rifampicin]
- sensible (S) or resistant (R) [1]: S (sensible (S))
- sensible (S) or resistant (R) [2]: R (A strain is designated as resistant if its MIC in testing according to the General Test Procedure after 3 to 5 weeks is higher than 20 μg/ml)
- sensible (S) or resistant (R) [3]: S (sensible (S))
- sensible (S) or resistant (R) [4]: S (sensible (S))
- sensible (S) or resistant (R) [5]: S (sensible (S))
- sensible (S) or resistant (R) [6]: R (A strain is designated as resistant if its MIC in testing according to the General Test Procedure after 3 to 5 weeks is higher than 20 μg/ml)
- sensible (S) or resistant (R) [7]: S (sensible (S))
- sensible (S) or resistant (R) [8]: S (sensible (S))
- sensible (S) or resistant (R) [9]: S (sensible (S))
- sensible (S) or resistant (R) [10]: S (sensible (S))
- sensible (S) or resistant (R) [11]: S (sensible (S))
- sensible (S) or resistant (R) [12]: S (sensible (S))
- sensible (S) or resistant (R) [13]: S (sensible (S))
- sensible (S) or resistant (R) [14]: R (A strain is designated as resistant if its MIC in testing according to the General Test Procedure after 3 to 5 weeks is higher than 20 μg/ml)
- sensible (S) or resistant (R) [15]: R (A strain is designated as resistant if its MIC in testing according to the General Test Procedure after 3 to 5 weeks is higher than 20 μg/ml)

SMILES: [H]/N=C(/N)N[C@H]1[C@H](O)[C@@H](O)[C@H](O[C@@H]2O[C@@H](C)[C@](O)(C=O)[C@H]2O[C@@H]2O[C@@H](CO)[C@H](O)[C@@H](O)[C@@H]2NC)[C@@H](N/C(N)=N\[H])[C@@H]1O [Streptomycin]
- sensible (S) or resistant (R) [1]: S (sensible (S))
- sensible (S) or resistant (R) [2]: S (sensible (S))
- sensible (S) or resistant (R) [3]: S (sensible (S))
- sensible (S) or resistant (R) [4]: S (sensible (S))
- sensible (S) or resistant (R) [5]: S (sensible (S))
- sensible (S) or resistant (R) [6]: S (sensible (S))
- sensible (S) or resistant (R) [7]: S (sensible (S))
- sensible (S) or resistant (R) [8]: S (sensible (S))
- sensible (S) or resistant (R) [9]: R (A strain is designated as resistant if its MIC in testing according to the General Test Procedure after 3 to 5 weeks is higher than 20 μg/ml)
- sensible (S) or resistant (R) [10]: S (sensible (S))
- sensible (S) or resistant (R) [11]: R (A strain is designated as resistant if its MIC in testing according to the General Test Procedure after 3 to 5 weeks is higher than 20 μg/ml)
- sensible (S) or resistant (R) [12]: S (sensible (S))
- sensible (S) or resistant (R) [13]: S (sensible (S))
- sensible (S) or resistant (R) [14]: S (sensible (S))
- sensible (S) or resistant (R) [15]: R (A strain is designated as resistant if its MIC in testing according to the General Test Procedure after 3 to 5 weeks is higher than 20 μg/ml)
